# Values of other authors as cited in patent US20050038005A1, “Method of intermittent administration of a pharmaceutical for the treatment of conditions associated with a female's menstrual cycle” (priority 2003, published 2005).
# What was measured:
# [1] = calcium supplementation; especially pain and water retention
# [2] = magnesium supplementation, oral
# [3] = intermittent administration for approximately fourteen days prior to the start of menses
# [4] = administration of fluoxetine
smiles,measurement,setting,value
[Ca+2] [Calcium],alleviation of symptoms associated with PMS,[1],effective treatment for alleviating some of the symptoms associated with PMS
[Mg+2] [Magnesium],relief of symptoms of PMS,[2],"relieve some symptoms of PMS, particularly pain and mood fluctuations"
CNCCC(Oc1ccc(C(F)(F)F)cc1)c1ccccc1 (stereo not shown) [fluoxetine],efficacy in treating the symptoms of PMS,[3],efficacious in treating the symptoms of PMS
same,amelioration of symptoms of PMS/PMDD,[4],ameliorate the symptoms of PMS/PMDD
